In US20250223276A1, “Substituted Pyrrolidinyl And Piperidinyl Compounds And Related Methods Of Treatment” (Alkermes, Inc., priority 2022, published 2025):

The compounds below were run against T1, human orexin-2 receptor (OX2R) (Homo sapiens, UniProt O43614) (assay: Human OX2R IP1 assay). Conditions: T-Rex CHO cells stably overexpressing human OX2R; IP1 (inositol monophosphate) accumulation, HTRF; 1 hr at 37 degrees C.
T1 construct: expressed in transfected cells
T1 sequence (O43614 1-444): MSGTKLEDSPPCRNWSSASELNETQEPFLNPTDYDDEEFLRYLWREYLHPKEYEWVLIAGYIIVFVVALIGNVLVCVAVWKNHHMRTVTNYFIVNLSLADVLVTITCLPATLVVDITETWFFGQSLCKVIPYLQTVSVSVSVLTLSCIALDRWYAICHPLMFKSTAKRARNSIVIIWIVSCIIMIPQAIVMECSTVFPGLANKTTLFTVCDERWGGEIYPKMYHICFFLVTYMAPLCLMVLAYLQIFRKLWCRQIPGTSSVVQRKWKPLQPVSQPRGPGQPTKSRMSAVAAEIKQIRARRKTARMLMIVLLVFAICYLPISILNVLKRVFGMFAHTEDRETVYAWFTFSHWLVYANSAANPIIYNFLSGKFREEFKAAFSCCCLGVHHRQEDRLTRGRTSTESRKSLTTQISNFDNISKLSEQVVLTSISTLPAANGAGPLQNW
Format: cell-based
Method: T-Rex CHO cells stably overexpressing the human orexin-2 receptor (OX2R) are induced overnight with 1 μg/mL of doxycycline in a T225 flask. 24 hours post induction, cells are lifted with accutase and plated into a 384-well proxy plate at 30,000 cells/well. Cells are then treated with different test compounds in 1× stimulation buffer containing 10 mM Hepes, 1 mM CaCl2), 0.5 mM MgCl2, 4.2 mM KCl, 146 mM NaCl, 5.5 mM glucose, and 50 mM LiCl, pH 7.4, for 1 hr at 37 degrees C. Following incubation, the reaction is terminated by the addition of detection mix, which is composed of IP1-d2 and anti-IP1-cryptate diluted in lysis buffer as well as 1× stimulation buffer. The plates are allowed to incubate for 1 hour at room temperature and are then read in the En Vision® multimode plate reader, measuring inositol phosphate levels.
Cisbio IP1 is a cell-based functional assay quantifying the accumulation of inositol monophosphate (IP), a metabolite released as a result of orexin 2 receptor activation through the phospholipase C-Gq signaling pathway. This is a competitive immunoassay in which the IP1 produced by the cells upon receptor activation competes with the IP1 analog coupled to the d2 fluorophore (acceptor) for binding to an anti-IP1 monoclonal antibody labeled with Eu cryptate (donor). The measured HTRF-FRET based signal is inversely proportional to the IP1 concentration produced.
The EC50 values reported in Table 2 were obtained according to the human OX2R IP1 assay described above. Data are the mean EC50 values±S.E.M.

`CN(C)S(=O)(=O)N[C@H]1CCN(C(=O)c2cnco2)C[C@H]1CO[C@H]1CC[C@@H](c2cccc(F)c2)CC1` [Compound 44] and `CN(C)S(=O)(=O)N[C@H]1CCN(C(=O)c2cncs2)C[C@H]1CO[C@H]1CC[C@@H](c2cccc(F)c2)CC1` [Compound 45] cannot be ordered by EC50: under 0.1 µM for the first, under 0.1 µM for the second.

First: O=S(=O)(N[C@H]1CCN(c2cccnn2)C[C@H]1CO[C@H]1CC[C@@H](c2cccc(F)c2)CC1)N1CC(F)C1 [Compound 18]
Second: O=S(=O)(N[C@H]1CCN(c2cccnn2)C[C@H]1CO[C@H]1CC[C@@H](c2cccc(F)c2)CC1)N1CC(Cl)C1 [Compound 31]
The EC50 of the first is lower: 0.1 to 1 µM for the first, over 1 µM for the second. The first is the more potent here.

Compared with `O=S(=O)(N[C@H]1CCN(c2cccnn2)C[C@H]1CO[C@H]1CC[C@@H](c2cccc(F)c2)CC1)C1CCC1` [Compound 20], `CC(C)S(=O)(=O)N[C@H]1CCN(c2cccnn2)C[C@H]1CO[C@H]1CC[C@@H](c2cccc(F)c2)CC1` [Compound 21] is lower in EC50: over 1 µM for the first, under 0.1 µM for the second.

First: CN(CCF)S(=O)(=O)N[C@H]1CCN(c2cccnn2)C[C@H]1CO[C@H]1CC[C@@H](c2cccc(F)c2)CC1 [Compound 64]
Second: CN(C)S(=O)(=O)N[C@H]1CCN(c2cccnn2)C[C@H]1CO[C@H]1CC[C@@H](c2cccc(F)c2)CC1 [Compound 2]
The EC50 of the first is higher: over 1 µM for the first, under 0.1 µM for the second. The second is the more potent here.

`C[C@@H](OC(=O)N1CC[C@H](NS(=O)(=O)N(C)C)[C@H](CO[C@H]2CC[C@@H](c3cccc(F)c3)CC2)C1)C(F)F` [Compound 65] and `CC(C)OC(=O)N1CC[C@H](NS(=O)(=O)N(C)C)[C@H](CO[C@H]2CC[C@@H](c3cccc(F)c3)CC2)C1` [Compound 50] fall in the same range of EC50: 0.1 to 1 µM for the first, 0.1 to 1 µM for the second.

Compared with `CN(C)S(=O)(=O)N[C@H]1CCN(C(=O)C2CCC(F)(F)C2)C[C@H]1CO[C@H]1CC[C@@H](c2cccc(F)c2)CC1` (stereo partly shown) [Compound 13], `CN(C)S(=O)(=O)N[C@H]1CCN(C(=O)[C@H]2C[C@@H](F)C2)C[C@H]1CO[C@H]1CC[C@@H](c2cccc(F)c2)CC1` [Compound 53] is lower in EC50: over 1 µM for the first, under 0.1 µM for the second. The second is the more potent here.

`CN(C)S(=O)(=O)N[C@H]1CCN(C(=O)c2ccnn2C)C[C@H]1CO[C@H]1CC[C@@H](c2cccc(F)c2)CC1` [Compound 49] and `CN1CCCC1C(=O)N1CC[C@H](NS(=O)(=O)N(C)C)[C@H](CO[C@H]2CC[C@@H](c3cccc(F)c3)CC2)C1` (stereo partly shown) [Compound 51] cannot be ordered by EC50: over 1 µM for the first, over 1 µM for the second.

`CN1CC(NS(=O)(=O)N[C@H]2CCN(c3cccnn3)C[C@H]2CO[C@H]2CC[C@@H](c3cccc(F)c3)CC2)C1` [Compound 33] and `O=S(=O)(N[C@H]1CCN(c2cccnn2)C[C@H]1CO[C@H]1CC[C@@H](c2cccc(F)c2)CC1)N1CC(CF)C1` [Compound 28] cannot be ordered by EC50: over 1 µM for the first, over 1 µM for the second.

`CS(=O)(=O)N[C@H]1CCN(C(=O)[C@H]2CCOC2)C[C@H]1CO[C@H]1CC[C@@H](c2cccc(F)c2)CC1` [Compound 7] and `CS(=O)(=O)N[C@H]1CCN(C(=O)C2(F)CCC2)C[C@H]1CO[C@H]1CC[C@@H](c2cccc(F)c2)CC1` [Compound 6] cannot be ordered by EC50: under 0.1 µM for the first, under 0.1 µM for the second.

`CN(C)S(=O)(=O)N[C@H]1CCN(C(=O)OC2CC2)C[C@H]1CO[C@H]1CC[C@@H](c2cccc(F)c2)CC1` [Compound 60] and `CN(C)S(=O)(=O)N[C@H]1CCN(C(=O)OCC2(F)CC2)C[C@H]1CO[C@H]1CC[C@@H](c2cccc(F)c2)CC1` [Compound 58] cannot be ordered by EC50: over 1 µM for the first, over 1 µM for the second.

`CN1CC2(C1)CN(S(=O)(=O)N[C@H]1CCN(c3cccnn3)C[C@H]1CO[C@H]1CC[C@@H](c3cccc(F)c3)CC1)C2` [Compound 27] and `O=S(=O)(N[C@H]1CCN(c2cccnn2)C[C@H]1CO[C@H]1CC[C@@H](c2cccc(F)c2)CC1)N1CC(C(F)(F)F)C1` [Compound 22] cannot be ordered by EC50: over 1 µM for the first, over 1 µM for the second.

Going from `CC(C)N(C)[C@H]1CCN(S(=O)(=O)N[C@H]2CCN(c3cccnn3)C[C@H]2CO[C@H]2CC[C@@H](c3cccc(F)c3)CC2)C1` [Compound 56] to `CN(C)S(=O)(=O)N[C@H]1CCN(C(=O)N2CC(F)(F)C2)C[C@H]1CO[C@H]1CC[C@@H](c2cccc(F)c2)CC1` [Compound 62], the EC50 falls from over 1 µM to under 0.1 µM. The second is the more potent here.

Compound `CN(C)S(=O)(=O)N[C@H]1CCN(C(=O)OCC(F)F)C[C@H]1CO[C@H]1CC[C@@H](c2cccc(F)c2)CC1` [Compound 48] has an EC50 of under 0.1 µM.
